# In US20140242093A1, “METHODS AND COMPOSITIONS FOR MODULATING THE INNATE IMMUNE RESPONSE AND/OR MYOGENESIS IN A MAMMALIAN SUBJECT” (FRED HUTCHINSON CANCER RESEARCH CENTER, priority 2011, published 2014):
# System: human genome (hg18)
# Test: ChIP-Seq of DUX4 binding sites in transduced primary myoblasts
# Conditions: for max.cov (peak height): non-repeat binding site
# Protocol: Non-redundant reads unambiguously mapped to the human genome were computationally extended to a total length of 200 nucleotides and “peaks” were defined as regions where the number of reads was higher than a statistical threshold compared to the background, as described below. Reads mapping to the X and Y chromosomes were excluded from the analysis.
# ChIP was performed and ChIP DNA samples were prepared as previously described in Cao et al., Dev. Cell 18:662-674 (2010), hereby incorporated herein by reference. […] Anti-DUX4 N-terminus polyclonal antibodies FH106 and FH107 were combined to immunoprecipitate DUX4-s. The samples were sequenced with Illumina Genome Analyzer II.
# Sequences were extracted by Illumina package GApipeline and reads were aligned using BWA to the human genome (hg18). The inventors only kept one of the duplicated sequences to minimize the artifacts of PCR amplification. Each read was extended in the sequencing orientation to a total of 200 bases to infer the coverage at each genomic position. Peak calling was performed by a house developed R package “peakSig” (pending submission to Bioconductor), which model background reads by a negative binomial distribution. The negative binomial distribution can be viewed as a continuous mixture of Poisson distribution where the mixing distribution of the Poisson rate is modeled as a Gamma prior. This prior distribution is used to capture the variation of background reads density across the genome. Model parameters were estimated by fitting the truncated distribution on the number of bases with low coverage (one to three), to avoid the problem of inferring effective genome size excluding the non-mappable regions, and to eliminate contamination of any foreground signals in the high coverage regions. The inventors also fit a GC dependent mixture model so that the significance of the peaks is determined not only by peak height, but also by the GC content of the neighboring genomic regions.
# Discriminative motif discovery was carried out as described in Palii et al. (2011), in which motifs were identified that distinguish a positive and a negative sequence dataset, which in this study, the positive sequences correspond to Dux4 binding sites and negative sequences correspond to the randomly sampled flanking regions of Dux4 binding sites. To generate more accurate presentation of the Dux4 binding sites from the consensus pattern returned by this analysis, the inventors tried to learn a positional weight matrix (PWM) model, using the matches of the consensus pattern as the seed to initialize the iterative expectation-maximization (EM) refinement process similar to MEME. If appropriate, the motifs are extended iteratively as long as there is sequence preference in the flanking region, and refined in the same EM process.
# The inventors associated a peak to its closest TSS within the region flanked by CTCF binding sites, which were identified in a ChIP-seq experiment on human CD4+ T cells (GEO accession number GSE12889/GSM325895).
# [1] = repeat family DNA/TcMar-Mariner
# [2] = repeat family DNA/hAT-Blackjack
substance,measurement,setting,value
"DUX4-fl: full-length DUX4 protein (SEQ ID NO:110), expressed from lentiviral or pCS2 vectors or in vitro translated",max.cov (peak height),"SNAI1, chr20, dist2tss 769",62
same,max.cov (peak height),"SON, chr21, dist2tss −2951",244
same,max.cov (peak height),"SPRYD5, chr11, dist2tss −2855",133
same,max.cov (peak height),"SPTY2D1, chr11, dist2tss 5934",74
same,max.cov (peak height),"SPTY2D1, chr11, dist2tss −797",105
same,max.cov (peak height),"SRRT, chr7, dist2tss 1546",128
same,max.cov (peak height),"SYNJ1, chr21, dist2tss −766",229
same,max.cov (peak height),"TAF4B, chr18, dist2tss −1741",65
same,max.cov (peak height),"TFIP11, chr22, dist2tss −1353",234
same,max.cov (peak height),"TRIM43, chr2, dist2tss 1385",47
same,max.cov (peak height),"TRIM43, chr2, dist2tss −5584",85
same,max.cov (peak height),"TRIM48, chr11, dist2tss −151",178
same,max.cov (peak height),"TRIM49L1, chr11, dist2tss 200",85
same,max.cov (peak height),"TRIM49L2, chr11, dist2tss −202",109
same,max.cov (peak height),"USP29, chr19, dist2tss 2090",104
same,max.cov (peak height),"USP29, chr19, dist2tss 3676",66
same,max.cov (peak height),"ZNF217, chr20, dist2tss 3546",122
same,max.cov (peak height),"ZNF217, chr20, dist2tss −2168",55
same,max.cov (peak height),"ZNF296, chr19, dist2tss 182",110
same,max.cov (peak height),"ZNF705A, chr12, dist2tss −5106",224
same,max.cov (peak height),"ZSCAN4, chr19, dist2tss 1430",364
same,max.cov (peak height),"ZSCAN5B, chr19, dist2tss 4892",89
same,max.cov (peak height),"ZSCAN5B, chr19, dist2tss −4101",67
same,max.cov (peak height),"ZSCAN5B, chr19, dist2tss −5014",98
same,max.cov (peak height),"hCG_1651160, chr7, dist2tss −192",215
same,max.cov (peak height),"hCG_1651160, chr7, dist2tss −892",114
same,DUX4-fl Binding Prevalence (fraction of all DUX4-fl peaks),[1],0.00105
same,DUX4-fl Enrichment (binding prevalence/overall genome prevalence),[1],1.14
same,DUX4-fl Binding Prevalence (fraction of all DUX4-fl peaks),repeat family DNA/TcMar-Tigger,0.0124
same,DUX4-fl Enrichment (binding prevalence/overall genome prevalence),repeat family DNA/TcMar-Tigger,1.11
same,DUX4-fl Binding Prevalence (fraction of all DUX4-fl peaks),[2],0.00064
same,DUX4-fl Enrichment (binding prevalence/overall genome prevalence),[2],0.57
same,DUX4-fl Binding Prevalence (fraction of all DUX4-fl peaks),repeat family DNA/hAT-Charlie,0.00761
same,DUX4-fl Enrichment (binding prevalence/overall genome prevalence),repeat family DNA/hAT-Charlie,0.51
same,DUX4-fl Binding Prevalence (fraction of all DUX4-fl peaks),repeat family DNA/hAT-Tip100,0.00098
same,DUX4-fl Enrichment (binding prevalence/overall genome prevalence),repeat family DNA/hAT-Tip100,0.45
same,DUX4-fl Binding Prevalence (fraction of all DUX4-fl peaks),repeat family DNA/hAT?,0.00016
same,DUX4-fl Enrichment (binding prevalence/overall genome prevalence),repeat family DNA/hAT?,0.94
same,DUX4-fl Binding Prevalence (fraction of all DUX4-fl peaks),repeat family LINE/CR1,0.00356
same,DUX4-fl Enrichment (binding prevalence/overall genome prevalence),repeat family LINE/CR1,1.00
same,DUX4-fl Binding Prevalence (fraction of all DUX4-fl peaks),repeat family LINE/L1,0.0938
same,DUX4-fl Enrichment (binding prevalence/overall genome prevalence),repeat family LINE/L1,0.58
same,DUX4-fl Binding Prevalence (fraction of all DUX4-fl peaks),repeat family LINE/L2,0.02978
same,DUX4-fl Enrichment (binding prevalence/overall genome prevalence),repeat family LINE/L2,0.86
same,DUX4-fl Binding Prevalence (fraction of all DUX4-fl peaks),repeat family LTR/ERV,0.00032
same,DUX4-fl Enrichment (binding prevalence/overall genome prevalence),repeat family LTR/ERV,5.33
same,DUX4-fl Binding Prevalence (fraction of all DUX4-fl peaks),repeat family LTR/ERV1,0.01878
same,DUX4-fl Enrichment (binding prevalence/overall genome prevalence),repeat family LTR/ERV1,0.72
same,DUX4-fl Binding Prevalence (fraction of all DUX4-fl peaks),repeat family LTR/ERVK,0.00803
same,DUX4-fl Enrichment (binding prevalence/overall genome prevalence),repeat family LTR/ERVK,2.97
same,DUX4-fl Binding Prevalence (fraction of all DUX4-fl peaks),repeat family LTR/ERVL,0.04558
same,DUX4-fl Enrichment (binding prevalence/overall genome prevalence),repeat family LTR/ERVL,2.50
same,DUX4-fl Binding Prevalence (fraction of all DUX4-fl peaks),repeat family LTR/ERVL-MaLR,0.3572
same,DUX4-fl Enrichment (binding prevalence/overall genome prevalence),repeat family LTR/ERVL-MaLR,9.92
same,DUX4-fl Binding Prevalence (fraction of all DUX4-fl peaks),repeat family LTR/Gypsy,0.00081
same,DUX4-fl Enrichment (binding prevalence/overall genome prevalence),repeat family LTR/Gypsy,1.07
same,DUX4-fl Binding Prevalence (fraction of all DUX4-fl peaks),repeat family SINE/Alu,0.00777
same,DUX4-fl Enrichment (binding prevalence/overall genome prevalence),repeat family SINE/Alu,0.08
same,DUX4-fl Binding Prevalence (fraction of all DUX4-fl peaks),repeat family SINE/MIR,0.02317
same,DUX4-fl Enrichment (binding prevalence/overall genome prevalence),repeat family SINE/MIR,0.82
same,DUX4-fl Binding Prevalence (fraction of all DUX4-fl peaks),repeat family SINE/tRNA,0.00011
same,DUX4-fl Enrichment (binding prevalence/overall genome prevalence),repeat family SINE/tRNA,1.57
same,DUX4-fl Binding Prevalence (fraction of all DUX4-fl peaks),repeat family Satellite,0.00068
same,DUX4-fl Enrichment (binding prevalence/overall genome prevalence),repeat family Satellite,0.66
same,DUX4-fl Binding Prevalence (fraction of all DUX4-fl peaks),repeat family Satellite/centr,0.00047
same,DUX4-fl Enrichment (binding prevalence/overall genome prevalence),repeat family Satellite/centr,0.19
same,DUX4-fl Binding Prevalence (fraction of all DUX4-fl peaks),repeat family Simple_repeat,0.00442
same,DUX4-fl Enrichment (binding prevalence/overall genome prevalence),repeat family Simple_repeat,0.53
same,DUX4-fl Binding Prevalence (fraction of all DUX4-fl peaks),repeat family Unknown,0.00063
same,DUX4-fl Enrichment (binding prevalence/overall genome prevalence),repeat family Unknown,1.47
same,DUX4-fl Binding Prevalence (fraction of all DUX4-fl peaks),repeat family rRNA,1.00E−04
same,DUX4-fl Enrichment (binding prevalence/overall genome prevalence),repeat family rRNA,1.67
